Source: patent US11395847B2, “Acylated GLP-1/GLP-2 dual agonists” (Zealand Pharma A/S, priority 2016, dated 2022)
*1 amine or outer side, *2 acyl side, *3 side chain or, on linkers, in order; H or OH if unused. Where a SMILES comes first, the peptide text is derived from it. Side-chain parts run from the residue outwards. [ ]: non-standard residue; d: D form. The star is where a group is joined. C20 diacid = O=C(O)CCCCCCCCCCCCCCCCCCC(=O)*; γGlu = O=C(O)[C@H](CCC(=O)[*:2])N[*:1]; AEEA = NCCOCCOCC(=O)O; Aib = CC(C)(N)C(=O)O

Test: Chemical stability (RP-HPLC normalized purity after incubation at 40° C.)
Assay type: physicochemical
Conditions: 14-day incubation, 0.2 mg/ml, normalized purity (area-%); for pH 7 normalized stability: pH 7, 40° C.
Experimental: Samples of each test peptide were dissolved in MILLIQ™ water, and the pH of the solution was adjusted to pH 6, 7, 7.5 or 9 using either HCl or NaOH. The final peptide concentration was 0.2 mg/ml. Samples were placed in glass vials and incubated at 40° C. The samples were analyzed by RP-HPLC on a C18 column with gradient elution using an acetonitrile/TFA/water eluent system. The area-percentage (area-%) of the main peak after incubation time T=t (relative to time T=0) was determined by UV spectroscopy at 220 nm.
The purity was first determined as follows: Purity(area-%)=(area of main peak/total area of all peaks)×100.
The purity was then normalized between time points by setting purity at time 0 (T=0) to 100 for each pH value for a given peptide, as follows: Normalized area-% at time t(T=t)=[area-%(T=t)/area-%(T=0)]×100.
The chemical stability assessment results after 14-day incubation (in the form of normalized purity values) are summarized in Table 4.

SMILES	pH 7 normalized stability	pH 6 normalized stability (pH 6, 40° C.)
CC[C@H](C)[C@H](NC(=O)[C@H](Cc1ccccc1)NC(=O)[C@H](CC(=O)O)NC(=O)[C@H](CCCNC(=N)N)NC(=O)[C@H](C)NC(=O)[C@H](C)NC(=O)[C@H](CCC(N)=O)NC(=O)[C@H](CCCCNC(=O)COCCOCCNC(=O)COCCOCCNC(=O)CC[C@H](NC(=O)CCCCCCCCCCCCCCCCCCC(=O)O)C(=O)O)NC(=O)[C@H](CC(=O)O)NC(=O)[C@H](CC(C)C)NC(=O)[C@@H](NC(=O)[C@@H](NC(=O)[C@H](C)NC(=O)[C@H](CC(C)C)NC(=O)[C@H](CCC(=O)O)NC(=O)[C@H](CO)NC(=O)[C@@H](NC(=O)[C@H](Cc1ccccc1)NC(=O)[C@H](CO)NC(=O)CNC(=O)[C@H](CCC(=O)O)NC(=O)C(C)(C)NC(=O)[C@@H](N)Cc1c[nH]cn1)[C@@H](C)O)[C@@H](C)O)[C@@H](C)CC)C(=O)N[C@@H](C)C(=O)N[C@@H](Cc1c[nH]c2ccccc12)C(=O)N[C@@H](CC(C)C)C(=O)N[C@@H](CCCCN)C(=O)N[C@@H](CCC(N)=O)C(=O)N[C@@H](Cc1c[nH]cn1)C(=O)N[C@@H](CCCCN)C(=O)N[C@H](C(=O)N[C@H](C(=O)N[C@@H](CC(=O)O)C(=O)O)[C@@H](C)O)[C@@H](C)CC [Compound 34] (H-H[Aib]EGSFTSELATILDK([AEEA-AEEA-γGlu-C20 diacid])QAARDFIAWLKQHKITD-OH)	A (>90% normalised stability)	
CC[C@H](C)[C@H](NC(=O)[C@H](CC(C)C)NC(=O)[C@H](Cc1c[nH]c2ccccc12)NC(=O)[C@H](C)NC(=O)[C@@H](NC(=O)[C@H](Cc1ccccc1)NC(=O)[C@H](CC(=O)O)NC(=O)[C@H](CCCNC(=N)N)NC(=O)[C@H](C)NC(=O)[C@H](C)NC(=O)[C@H](CC(C)C)NC(=O)[C@H](CCCCNC(=O)CC[C@H](NC(=O)CCCCCCCCCCCCCCCCC(=O)O)C(=O)O)NC(=O)[C@H](CC(=O)O)NC(=O)[C@H](CC(C)C)NC(=O)[C@@H](NC(=O)[C@@H](NC(=O)[C@H](C)NC(=O)[C@H](CC(C)C)NC(=O)[C@H](CCC(=O)O)NC(=O)[C@H](CO)NC(=O)[C@@H](NC(=O)[C@H](Cc1ccccc1)NC(=O)[C@H](CO)NC(=O)CNC(=O)[C@H](CCC(=O)O)NC(=O)C(C)(C)NC(=O)[C@@H](N)Cc1c[nH]cn1)[C@@H](C)O)[C@@H](C)O)[C@@H](C)CC)[C@@H](C)CC)C(=O)N[C@@H](C)C(=O)N[C@@H](Cc1c[nH]cn1)C(=O)N[C@@H](CCCCN)C(=O)N[C@H](C(=O)N[C@H](C(=O)N[C@@H](CC(=O)O)C(=O)O)[C@@H](C)O)[C@@H](C)CC [Compound 14] (HELM PEPTIDE1{H.[Aib].E.G.S.F.T.S.E.L.A.T.I.L.D.K.L.A.A.R.D.F.I.A.W.L.I.A.H.K.I.T.D}|PEPTIDE2{[O=C(O)CCCCCCCCCCCCCCCCC(=O)[*:2]].[gGlu]}$PEPTIDE1,PEPTIDE2,16:R3-2:R2$$$V2.0)	A (>90% normalised stability)	
CC[C@H](C)[C@H](NC(=O)[C@H](Cc1ccccc1)NC(=O)[C@H](CC(=O)O)NC(=O)[C@H](CCCNC(=N)N)NC(=O)[C@H](C)NC(=O)[C@H](C)NC(=O)[C@H](CCC(N)=O)NC(=O)[C@H](CCCCNC(=O)CC[C@H](NC(=O)CCCCCCCCCCCCCCCCC(=O)O)C(=O)O)NC(=O)[C@H](CC(=O)O)NC(=O)[C@H](CC(C)C)NC(=O)[C@@H](NC(=O)[C@@H](NC(=O)[C@H](C)NC(=O)[C@H](CC(C)C)NC(=O)[C@H](CCC(=O)O)NC(=O)[C@H](CO)NC(=O)[C@H](CO)NC(=O)[C@H](Cc1ccccc1)NC(=O)[C@H](CO)NC(=O)CNC(=O)[C@H](CCC(=O)O)NC(=O)C(C)(C)NC(=O)[C@@H](N)Cc1c[nH]cn1)[C@@H](C)O)[C@@H](C)CC)C(=O)N[C@@H](C)C(=O)N[C@@H](Cc1c[nH]c2ccccc12)C(=O)N[C@@H](CC(C)C)C(=O)N[C@H](C(=O)N[C@@H](CCC(N)=O)C(=O)N[C@@H](Cc1c[nH]cn1)C(=O)N[C@@H](CCCCN)C(=O)N[C@H](C(=O)N[C@H](C(=O)N[C@@H](CC(=O)O)C(=O)O)[C@@H](C)O)[C@@H](C)CC)[C@@H](C)CC [B, reference compound] (HELM PEPTIDE1{H.[Aib].E.G.S.F.S.S.E.L.A.T.I.L.D.K.Q.A.A.R.D.F.I.A.W.L.I.Q.H.K.I.T.D}|PEPTIDE2{[O=C(O)CCCCCCCCCCCCCCCCC(=O)[*:2]].[gGlu]}$PEPTIDE1,PEPTIDE2,16:R3-2:R2$$$V2.0)	A (>90% normalised stability)	A (>90% normalised stability)

More lines, now with the values ahead:

pH 7 normalized stability	pH 6 normalized stability (pH 6, 40° C.)	SMILES
A (>90% normalised stability)		CC[C@H](C)[C@H](NC(=O)[C@H](CC(C)C)NC(=O)[C@H](Cc1c[nH]c2ccccc12)NC(=O)[C@H](C)NC(=O)[C@@H](NC(=O)[C@H](Cc1ccccc1)NC(=O)[C@H](CC(=O)O)NC(=O)[C@H](CCCNC(=N)N)NC(=O)[C@H](C)NC(=O)[C@H](C)NC(=O)[C@H](CCC(N)=O)NC(=O)[C@H](CCCCNC(=O)COCCOCCNC(=O)[C@H](CCCCN)NC(=O)[C@H](CCC(=O)O)NC(=O)[C@H](CCCCN)NC(=O)CC[C@H](NC(=O)CCCCCCCCCCCCCCCCCCC(=O)O)C(=O)O)NC(=O)[C@H](CC(=O)O)NC(=O)[C@H](CC(C)C)NC(=O)[C@@H](NC(=O)[C@@H](NC(=O)[C@H](C)NC(=O)[C@H](CC(C)C)NC(=O)[C@H](CCC(=O)O)NC(=O)[C@H](CO)NC(=O)[C@@H](NC(=O)[C@H](Cc1ccccc1)NC(=O)[C@H](CO)NC(=O)CNC(=O)[C@H](CCC(=O)O)NC(=O)C(C)(C)NC(=O)[C@@H](N)Cc1c[nH]cn1)[C@@H](C)O)[C@@H](C)O)[C@@H](C)CC)[C@@H](C)CC)C(=O)N[C@@H](C)C(=O)N[C@@H](Cc1c[nH]cn1)C(=O)N[C@@H](CCCCN)C(=O)N[C@H](C(=O)N[C@H](C(=O)N[C@@H](CC(=O)O)C(=O)O)[C@@H](C)O)[C@@H](C)CC [Compound 58] (HELM PEPTIDE1{H.[Aib].E.G.S.F.T.S.E.L.A.T.I.L.D.K.Q.A.A.R.D.F.I.A.W.L.I.A.H.K.I.T.D}|PEPTIDE2{[O=C(O)CCCCCCCCCCCCCCCCCCC(=O)[*:2]].[gGlu].K.E.K.[O=C(COCCOCCN[*:1])[*:2]]}$PEPTIDE1,PEPTIDE2,16:R3-6:R2$$$V2.0)
A (>90% normalised stability)		CC[C@H](C)[C@H](NC(=O)[C@H](Cc1ccccc1)NC(=O)[C@H](CC(=O)O)NC(=O)[C@H](CCCNC(=N)N)NC(=O)[C@H](C)NC(=O)[C@H](C)NC(=O)[C@H](CCC(N)=O)NC(=O)[C@H](CCC(=O)O)NC(=O)[C@H](CC(=O)O)NC(=O)[C@H](CC(C)C)NC(=O)[C@@H](NC(=O)[C@@H](NC(=O)[C@H](C)NC(=O)[C@H](CCCCNC(=O)COCCOCCNC(=O)[C@H](CCCCN)NC(=O)[C@H](CCC(=O)O)NC(=O)[C@H](CCCCN)NC(=O)CC[C@H](NC(=O)CCCCCCCCCCCCCCCCCCC(=O)O)C(=O)O)NC(=O)[C@H](CCC(=O)O)NC(=O)[C@H](CO)NC(=O)[C@@H](NC(=O)[C@H](Cc1ccccc1)NC(=O)[C@H](CO)NC(=O)CNC(=O)[C@H](CCC(=O)O)NC(=O)C(C)(C)NC(=O)[C@@H](N)Cc1c[nH]cn1)[C@@H](C)O)[C@@H](C)O)[C@@H](C)CC)C(=O)N[C@@H](C)C(=O)N[C@@H](Cc1c[nH]c2ccccc12)C(=O)N[C@@H](CC(C)C)C(=O)N[C@H](C(=O)N[C@@H](CCC(=O)O)C(=O)N[C@@H](Cc1c[nH]cn1)C(=O)N[C@@H](CCCCN)C(=O)N[C@H](C(=O)N[C@H](C(=O)N[C@@H](CC(=O)O)C(=O)O)[C@@H](C)O)[C@@H](C)CC)[C@@H](C)CC [Compound 53] (HELM PEPTIDE1{H.[Aib].E.G.S.F.T.S.E.K.A.T.I.L.D.E.Q.A.A.R.D.F.I.A.W.L.I.E.H.K.I.T.D}|PEPTIDE2{[O=C(O)CCCCCCCCCCCCCCCCCCC(=O)[*:2]].[gGlu].K.E.K.[O=C(COCCOCCN[*:1])[*:2]]}$PEPTIDE1,PEPTIDE2,10:R3-6:R2$$$V2.0)
A (>90% normalised stability)		CC[C@H](C)[C@H](NC(=O)[C@H](Cc1ccccc1)NC(=O)[C@H](CC(=O)O)NC(=O)[C@H](CCCNC(=N)N)NC(=O)[C@H](C)NC(=O)[C@H](C)NC(=O)[C@H](CCC(N)=O)NC(=O)[C@H](CCC(=O)O)NC(=O)[C@H](CC(=O)O)NC(=O)[C@H](CC(C)C)NC(=O)[C@@H](NC(=O)[C@@H](NC(=O)[C@H](C)NC(=O)[C@H](CCCCNC(=O)COCCOCCNC(=O)COCCOCCNC(=O)[C@H](CCCCN)NC(=O)[C@H](CCC(=O)O)NC(=O)[C@H](CCCCN)NC(=O)CC[C@H](NC(=O)CCCCCCCCCCCCCCCCCCC(=O)O)C(=O)O)NC(=O)[C@H](CCC(=O)O)NC(=O)[C@H](CO)NC(=O)[C@@H](NC(=O)[C@H](Cc1ccccc1)NC(=O)[C@H](CO)NC(=O)CNC(=O)[C@H](CCC(=O)O)NC(=O)C(C)(C)NC(=O)[C@@H](N)Cc1c[nH]cn1)[C@@H](C)O)[C@@H](C)O)[C@@H](C)CC)C(=O)N[C@@H](C)C(=O)N[C@@H](Cc1c[nH]c2ccccc12)C(=O)N[C@@H](CC(C)C)C(=O)N[C@H](C(=O)N[C@@H](CCC(=O)O)C(=O)N[C@@H](Cc1c[nH]cn1)C(=O)N[C@@H](CCCCN)C(=O)N[C@H](C(=O)N[C@H](C(=O)N[C@@H](CC(=O)O)C(=O)O)[C@@H](C)O)[C@@H](C)CC)[C@@H](C)CC [Compound 55] (H-H[Aib]EGSFTSEK([AEEA-AEEA-Lys-Glu-Lys-γGlu-C20 diacid])ATILDEQAARDFIAWLIEHKITD-OH)
